Source: patent US6673839B1, “Pharmaceutical compositions with antitumour activity” (Universita' Degli Studi di Catania, priority 1998, dated 2004)
Where a name gives a salt, the structure may show the parent alone.

How the values were obtained:
[1] = system: cells from 4 primitive epidermoid carcinomas of the larynx and 1 primitive undifferentiated carcinoma of the nasopharynx; test: In vitro short-term chemosensitivity assay (MTT), all five explants; format: cell-based, human
Method: (§1) The effects of L-aC on cells from 4 primitive epidermoid carcinomas of the larynx and 1 primitive undifferentiated carcinoma of the nasopharynx were tested.
(§2) Tissue fragments from the tumour mass were mechanically dissociated in Hank's solutions adding an antibiotic and an antifungal to obtain a cell monosuspension free of agglomerates. The resulting suspension was centrifuged at 1200 rpm for 5 minutes and the pellet was resuspended in MEM culture medium supplemented with 10% of patient serum, to obtain a concentration of 10^5 cells/ml. Subsequently, 180 μl of the resulting suspension were dispensed in microplate wells and incubated under 5% CO2 atmosphere at 37° C. for 3 days. After that, the antitumor medicaments were added in the amount of 20 μl for each well, at a concentration of 0.1×, 1× and 10× the maximum serum concentrations that can usually be reached in clinical practice. 24 h after the beginning of the exposure to the antitumour medicament, 100 μl of MTT were added, and after 4 h, a further 150 μl of dimethylsulfoxide were added.
(§3) The optical density was evaluated by a Uniscan microspectrophotometer with a […] wavelength filter. Cytotoxicity was evaluated as percentage of the optical density of the treated sample compared with the optical density of the control.
(§4) Bleomycin (BLEC), […] (CDDP), 5-fluoruracil (5-FU), vincristine (VCR), epidoxorubicin (Epi-Dx) and methotrexate (MTX) were tested for comparison purposes.
(§5) L-aC was tested at the following concentrations: 0.2-2-20 mg/ml.

[2] = system: cells from 4 primitive epidermoid carcinomas of the larynx and 1 primitive undifferentiated carcinoma of the nasopharynx; test: Effects of L-aC on cell cycle of cultured primitive human tumour cells (cytofluorimetric analysis); format: cell-based
Method: as §1
Tissue fragments from the tumour mass were mechanically dissociated in Hank's solutions adding an antibiotic and an antifungal to obtain a cell monosuspension free of agglomerates. The resulting suspension was centrifuged at 1200 rpm for 5 m′ and the pellet was resuspended in MEM culture medium supplemented with 10% of patient serum, to obtain a concentration of 2−3×10^4 cells/ml of medium. 1 ml Samples were prepared from the suspension, in amounts equivalent to the number of the concentrations to be assayed (0.2-20 mg/ml) as well as a control sample.
The suspensions were exposed to the medicament in Dubnoff bath at 37° C. for 24 h, then centrifuged and resuspended in 1 ml of fixing solution (tris buffer+methanol (1:3)) for 30 minutes and finally stained with 0.5% propyl iodide with simultaneous treatment with RNase.
Cytofluorimetric analysis in order to evaluate the percentage distribution of the cell cycle phases, was performed by an Ortho Diagnostic Spectrum III cytofluorigraph, equipped with Graphic Method computerized program.
The evaluation of the cell sensitivity to the medicament was based on the extent of the perturbations induced by L-aC on the cell cycle.

[3] = system: breast (MCF 7) adenocarcinoma cell line; test: Methylene blue assay on stabilized human neoplastic cell lines; format: cell-based
Method: (§6) The effects of L-aC on stabilized human neoplastic cell lines were tested using the methylene blue assay.
(§7) Acute promyelocytic leukemia cell line (HL60) and prostate (Du 145), colon (HT 29) and breast (MCF 7) adenocarcinoma cell lines have been used.
(§8) Cell suspensions at concentrations of 10^5 cells/ml were prepared.
(§9) 100 μl of the obtained cell suspension were inoculated on 96 well plates and incubated at 37° for 12 hours, to obtain cell adhesion to the plates. After 12 hours, L-aC was added at the concentrations of 0.2 mg/ml, 2 mg/ml, 20 mg/ml. […] Subsequently ethanol was removed and 1% methylene-blue was added for 2 hours. The dye was then removed and the plates were dried before adding 1M HCl.
(§10) The cytotoxicity percentage was calculated using the following formula:
(§11) (1−[O^D treated cells/O^D control cells)×100.
(§12) The optical density was evaluated by Uniskan micro-spectrophotometer with 630 nmwavelength filter.
(§13) The induction of apoptosis (appraised by Giemsa staining) was remarkable mainly on stabilized human neoplastic cell lines from breast and colon carcinomas.

[4] = system: colon (HT 29) adenocarcinoma cell line; test: as above; format: cell-based
Method: as §6, §7, §8, §9, §10, §11, §12, §13

Yoshida tumour = test: Survived rats reinoculated with Yoshida tumour; format: in vivo, Sprague-Dowley rats
Method: 20 survivors rats previously transplanted with Yoshida tumour and subjected to the treatment on alternate days with 25 mg of L-aC diluted in 5 ml of saline solution […], were reinoculated with the tumour, at the end of the 6 week observation period.

[5] = system: Cells from Larynx Carcinoma Explant; test: In vitro short-term chemosensitivity assay (MTT); format: cell-based, human
Method: as §1, §2, §3, §4, §5
In vitro short-term chemosensitivity assay (according to Hill and coll.)
(Cell Vitality Percentage After Exposure to the Antitumoral)—Raw Data
(Cells from Larynx Carcinoma Explant)

[6] = 20 mg/ml, 48 hours after exposure

CC(=O)OC(CC(=O)[O-])C[N+](C)(C)C [L-aC, L-acetylcarnitine hydrochloride]
IC50 ([1]; Homo sapiens, read-out: IC 50 concentrations): 20 to 700 µg/mL | IC90 ([1]; Homo sapiens, read-out: IC 90 concentrations): 700 to 20000 µg/mL | most active medicaments (cases out of 5) ([1]; five explants): 4/5 | increase in the percentage of S phase cells compared with the control ([2]; 0.2 mg/ml, 24 h, all samples): about 10% | effect on cell cycle ([2]; 20 mg/ml, 24 h): block in the percentage of the cells in G1 phase | G1/S+G2M ratio after the treatment ([2]; 20 mg/ml, tumour with pre-treatment ratio 31/69): 70/30 | cytotoxicity (percentage of dead cells) [3, 6]: 68% | induction of apoptosis (Giemsa staining) ([3]; breast carcinoma line): remarkable | cytotoxicity (percentage of dead cells) [4, 6]: 63% | induction of apoptosis (Giemsa staining) ([4]; colon carcinoma line): remarkable | ascites after reinoculation (Yoshida tumour; 20 survivors (25 mg L-aC alternate days, 4 weeks), until day 14 after reinoculation): no animals showed ascites | outcome of repeated reinoculation (Yoshida tumour; second reinoculation): unsuccessfully | Cell Vitality Percentage After Exposure ([5]; Table 2 explant, 0.1x): 62% | Cell Vitality Percentage After Exposure ([5]; Table 2 explant, 1x): 32% | Cell Vitality Percentage After Exposure ([5]; Table 2 explant, 10x): 15% | Cell Vitality Percentage After Exposure ([5]; Table 3 explant, 0.1x): 42% | Cell Vitality Percentage After Exposure ([5]; Table 3 explant, 1x): 24% | Cell Vitality Percentage After Exposure ([5]; Table 3 explant, 10x): 7.2% | Cell Vitality Percentage After Exposure ([5]; Table 4 explant, 0.1x): 3.8% | Cell Vitality Percentage After Exposure ([5]; Table 4 explant, 1x): 1.5% | Cell Vitality Percentage After Exposure ([5]; Table 4 explant, 10x): 1.4% | Cell Vitality Percentage After Exposure ([5]; Table 5 explant, 0.1x): 63% | Cell Vitality Percentage After Exposure ([5]; Table 5 explant, 1x): 37% | Cell Vitality Percentage After Exposure ([5]; Table 5 explant, 10x): 32%
